Structures can show the parent of a compound that is named as a salt. Values belong to the compound of their own block, whether it stands above or below them.
Experiments:
[1] = target: PI3Kγ (p110γ) Recombinant Human Protein (Homo sapiens (Human), UniProt P48736); assay: PI3K-γ scintillation proximity assay; type: biochemical; conditions: 2 μM ATP, 20 μM PIP2
[2] = test system: Phosphorylated Ribosomal Protein S6 (RPS6) in THP-1 cells; assay: THP-1 RPS6 ELISA assay; type: cell-based, human; conditions: Homo sapiens, THP-1, THP-1 cells, 10 nM MCP-1; read-out: PI3Kγ_THP1_RPS6_ELISA IC50
[3] = target: PI3Kδ (p110δ/p85α) Recombinant Human Protein (Homo sapiens (Human), UniProt O00329); assay: PI3Kδ scintillation proximity assay; type: biochemical; conditions: 2 μM ATP, 20 μM PIP2
Chain of PI3Kδ (p110δ/p85α) Recombinant Human Protein (O00329 whole entry): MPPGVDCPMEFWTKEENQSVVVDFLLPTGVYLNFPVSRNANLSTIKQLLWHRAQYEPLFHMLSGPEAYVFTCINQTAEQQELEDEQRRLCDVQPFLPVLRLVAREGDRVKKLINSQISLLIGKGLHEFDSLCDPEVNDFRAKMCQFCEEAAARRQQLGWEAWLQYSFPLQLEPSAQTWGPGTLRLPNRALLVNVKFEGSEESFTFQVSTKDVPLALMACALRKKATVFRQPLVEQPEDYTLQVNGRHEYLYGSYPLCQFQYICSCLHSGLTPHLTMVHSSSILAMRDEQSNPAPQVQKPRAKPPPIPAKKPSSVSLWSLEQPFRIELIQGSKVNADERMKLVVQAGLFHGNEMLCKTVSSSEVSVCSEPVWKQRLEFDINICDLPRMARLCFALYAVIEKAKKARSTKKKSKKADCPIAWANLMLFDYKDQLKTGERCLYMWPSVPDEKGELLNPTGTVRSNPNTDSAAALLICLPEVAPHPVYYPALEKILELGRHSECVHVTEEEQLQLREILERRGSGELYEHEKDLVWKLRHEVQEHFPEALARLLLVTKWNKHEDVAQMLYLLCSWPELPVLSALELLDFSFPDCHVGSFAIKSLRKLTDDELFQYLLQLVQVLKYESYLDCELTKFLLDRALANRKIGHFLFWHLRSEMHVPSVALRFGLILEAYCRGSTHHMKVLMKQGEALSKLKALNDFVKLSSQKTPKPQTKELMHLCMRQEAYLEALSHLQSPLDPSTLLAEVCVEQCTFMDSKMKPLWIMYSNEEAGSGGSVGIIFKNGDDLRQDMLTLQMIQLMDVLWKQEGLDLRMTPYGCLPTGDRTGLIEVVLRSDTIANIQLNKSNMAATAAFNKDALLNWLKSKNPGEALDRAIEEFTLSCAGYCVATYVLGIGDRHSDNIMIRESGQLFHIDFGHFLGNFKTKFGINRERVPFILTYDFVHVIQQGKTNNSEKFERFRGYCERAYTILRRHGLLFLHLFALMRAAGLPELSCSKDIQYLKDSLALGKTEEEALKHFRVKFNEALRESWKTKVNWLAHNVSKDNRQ
Chain of PI3Kδ (p110δ/p85α) Recombinant Human Protein (P27986 whole entry partner): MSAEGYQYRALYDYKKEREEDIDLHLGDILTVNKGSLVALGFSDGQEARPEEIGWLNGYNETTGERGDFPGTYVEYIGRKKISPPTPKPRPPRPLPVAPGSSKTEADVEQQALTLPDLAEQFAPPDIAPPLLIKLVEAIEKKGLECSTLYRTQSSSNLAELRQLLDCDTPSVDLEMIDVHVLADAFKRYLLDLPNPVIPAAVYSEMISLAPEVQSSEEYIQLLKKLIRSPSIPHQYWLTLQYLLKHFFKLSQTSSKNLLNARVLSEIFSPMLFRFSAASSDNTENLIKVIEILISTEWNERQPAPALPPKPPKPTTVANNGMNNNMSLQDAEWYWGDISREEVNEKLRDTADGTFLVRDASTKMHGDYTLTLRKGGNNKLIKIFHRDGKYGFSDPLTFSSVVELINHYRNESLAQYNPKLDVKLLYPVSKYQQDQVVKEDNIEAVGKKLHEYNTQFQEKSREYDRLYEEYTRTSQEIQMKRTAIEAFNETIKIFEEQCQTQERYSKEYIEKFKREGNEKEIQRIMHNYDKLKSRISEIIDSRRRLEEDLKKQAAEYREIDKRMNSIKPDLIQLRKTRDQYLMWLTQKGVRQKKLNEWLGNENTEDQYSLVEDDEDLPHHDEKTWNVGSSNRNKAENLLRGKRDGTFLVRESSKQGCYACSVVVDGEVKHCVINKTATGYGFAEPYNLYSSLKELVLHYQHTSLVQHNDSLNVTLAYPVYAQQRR

Chain of PI3Kγ (p110γ) Recombinant Human Protein (P48736 whole entry): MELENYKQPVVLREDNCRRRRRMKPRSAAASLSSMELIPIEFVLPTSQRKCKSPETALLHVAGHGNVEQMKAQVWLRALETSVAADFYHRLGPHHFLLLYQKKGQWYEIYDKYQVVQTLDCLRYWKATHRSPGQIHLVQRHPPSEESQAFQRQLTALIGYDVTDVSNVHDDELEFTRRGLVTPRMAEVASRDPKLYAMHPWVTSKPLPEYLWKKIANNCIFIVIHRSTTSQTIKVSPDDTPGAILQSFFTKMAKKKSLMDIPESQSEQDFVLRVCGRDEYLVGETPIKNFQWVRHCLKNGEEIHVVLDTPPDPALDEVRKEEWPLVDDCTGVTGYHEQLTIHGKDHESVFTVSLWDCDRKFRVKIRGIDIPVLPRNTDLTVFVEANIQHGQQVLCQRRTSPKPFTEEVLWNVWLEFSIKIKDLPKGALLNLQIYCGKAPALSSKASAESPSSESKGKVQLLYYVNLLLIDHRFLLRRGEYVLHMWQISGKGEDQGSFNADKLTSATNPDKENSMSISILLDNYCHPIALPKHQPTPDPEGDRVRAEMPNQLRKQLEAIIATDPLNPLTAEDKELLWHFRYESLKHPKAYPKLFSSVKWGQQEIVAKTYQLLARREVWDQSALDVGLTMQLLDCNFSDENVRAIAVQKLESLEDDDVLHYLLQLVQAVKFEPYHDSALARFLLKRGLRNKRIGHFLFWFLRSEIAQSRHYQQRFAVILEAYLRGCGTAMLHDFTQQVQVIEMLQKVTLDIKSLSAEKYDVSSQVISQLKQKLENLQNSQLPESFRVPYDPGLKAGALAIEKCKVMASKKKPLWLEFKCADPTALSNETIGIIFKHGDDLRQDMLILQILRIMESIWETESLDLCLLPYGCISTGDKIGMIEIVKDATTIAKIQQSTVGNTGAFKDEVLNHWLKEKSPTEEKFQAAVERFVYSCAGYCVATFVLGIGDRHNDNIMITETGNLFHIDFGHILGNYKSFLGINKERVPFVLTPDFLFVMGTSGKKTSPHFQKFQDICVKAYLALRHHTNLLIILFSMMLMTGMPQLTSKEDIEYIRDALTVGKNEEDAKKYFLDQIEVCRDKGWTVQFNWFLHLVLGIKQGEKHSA

Structure (SMILES): CC(NC(=O)c1c(N)nn2cccnc12)c1cc(Cl)c2cn[nH]c2c1N1CCS(=O)(=O)CC1 (stereo not drawn) [Example 94, 2-Amino-N-{1-[4-chloro-7-(1,1-dioxidothiomorpholin-4-yl)-2H-indazol-6-yl]ethyl}pyrazolo[1,5-a]pyrimidine-3-carboxamide trifluoroacetate]
- IC50 [1]: < 100 nM
- IC50 [2]: < 500 nM
- IC50 [3]: < 500 nM

Structure (SMILES): CC(NC(=O)c1c(N)nn2cccnc12)c1cc(Cl)c2cncn2c1N1CCS(=O)(=O)CC1C (single isomer, unassigned) [Example 38A, 2-Amino-N-(1-[8-chloro-5-(3-methyl-1,1-dioxidothiomorpholin-4-yl)imidazo[1,5-a]pyridin-6-yl]ethyl)pyrazolo[1,5-a]pyrimidine-3-carboxamide trifluoroacetate salt]
- IC50 [1]: < 100 nM
- IC50 [2]: < 500 nM
- IC50 [3]: < 100 nM

Structure (SMILES): CC(NC(=O)c1c(N)nn2cccnc12)c1cc(Cl)c2cn[nH]c2c1OC(F)F (stereo not drawn) [Example 83, 2-Amino-N-(1-(4-chloro-7-(difluoromethoxy)-1H-indazol-6-yl)ethyl)pyrazolo[1,5-a]pyrimidine-3-carboxamide trifluoroacetate]
- IC50 [1]: < 100 nM
- IC50 [2]: < 500 nM
- IC50 [3]: < 100 nM

Structure (SMILES): CC(NC(=O)c1c(N)nn2cccnc12)c1cc(Cl)c2cncn2c1-c1cncc(S(C)(=O)=O)c1 (racemic) [Example 131, 2-Amino-N-(1-{8-chloro-5-[5-(methylsulfonyl)pyridin-3-yl]imidazo[1,5-a]pyridin-6-yl}ethyl)pyrazolo[1,5-a]pyrimidine-3-carboxamide trifluoroacetate salt]
- IC50 [1]: < 100 nM
- IC50 [2]: < 500 nM
- IC50 [3]: < 100 nM

Structure (SMILES): COc1c(C(C)NC(=O)c2c(N)nn3cccnc23)cc(Cl)c2cn[nH]c12 (stereo not drawn) [Example 82, 2-Amino-N-(1-(4-chloro-7-methoxy-1H-indazol-6-yl)ethyl)pyrazolo[1,5-a]pyrimidine-3-carboxamide trifluoroacetate]
- IC50 [1]: < 100 nM
- IC50 [2]: < 500 nM
- IC50 [3]: < 100 nM

Structure (SMILES): Cc1ncc2c(Cl)cc(C(C)NC(=O)c3c(N)nn4cccnc34)c(-c3cn[nH]c3)n12 (racemic) [Example 118, 2-Amino-N-{1-[8-chloro-3-methyl-5-(1H-pyrazol-4-yl)imidazo[1,5-a]pyridin-6-yl]ethyl}pyrazolo[1,5-a]pyrimidine-3-carboxamide trifluoroacetate salt]
- IC50 [1]: < 100 nM
- IC50 [2]: < 500 nM
- IC50 [3]: < 100 nM

Structure (SMILES): CC1CN(c2c(CNC(=O)c3c(N)nn4cccnc34)cc(Cl)c3c(Cl)ncn23)CCS1(=O)=O (racemic) [Example 169, 2-Amino-N-((1,8-dichloro-5-(2-methyl-1,1-dioxidothiomorpholino)imidazo[1,5-a]pyridin-6-yl)methyl)pyrazolo[1,5-a]pyrimidine-3-carboxamide trifluoroacetate salt]
- IC50 [1]: < 100 nM
- IC50 [2]: < 500 nM
- IC50 [3]: < 500 nM

Structure (SMILES): CC(NC(=O)c1c(N)nn2cccnc12)c1cc(Cl)c2cncn2c1N1CC[S+]([O-])CC1 (stereo not drawn) [Example 37, 2-Amino-N-(1-[8-chloro-5-(1-oxidothiomorpholin-4-yl)imidazo[1,5-a]pyridin-6-yl]ethyl)pyrazolo[1,5-a]pyrimidine-3-carboxamide trifluoroacetate salt]
- IC50 [1]: < 100 nM
- IC50 [2]: < 500 nM
- IC50 [3]: < 500 nM

Structure (SMILES): Nc1nn2cccnc2c1C(=O)NCc1cc(Cl)c2cncn2c1N1CCS(=O)(=O)CC1 [Example 166, 2-Amino-N-{[8-chloro-5-(1,1-dioxidothiomorpholin-4-yl)imidazo[1,5-a]pyridin-6-yl]methyl}pyrazolo[1,5-a]pyrimidine-3-carboxamide trifluoroacetate salt]
- IC50 [1]: < 100 nM
- IC50 [2]: < 1000 nM
- IC50 [3]: < 2000 nM

Structure (SMILES): CC(NC(=O)c1c(N)nn2cccnc12)c1cc(Cl)c2cncn2c1N1CCC(F)(F)C1 (stereo not drawn) [Example 68, 2-Amino-N-{1-[8-chloro-5-(3,3-difluoropyrrolidin-1-yl)imidazo[1,5-a]pyridin-6-yl]ethyl}pyrazolo[1,5-a]pyrimidine-3-carboxamide bistrifluoroacetate]
- IC50 [1]: < 100 nM
- IC50 [2]: < 500 nM
- IC50 [3]: < 100 nM

Structure (SMILES): CC(NC(=O)c1c(N)nn2cccnc12)c1cc(Cl)c2cn[nH]c2c1OCCO (stereo not drawn) [Example 84, 2-Amino-N-(1-(4-chloro-7-(2-hydroxyethoxy)-1H-indazol-6-yl)ethyl)pyrazolo[1,5-a]pyrimidine-3-carboxamide trifluoroacetate]
- IC50 [1]: < 100 nM
- IC50 [2]: < 500 nM
- IC50 [3]: < 100 nM

Structure (SMILES): CC(NC(=O)c1c(N)nn2cccnc12)c1cc(Cl)c2cncn2c1-c1ccc(S(C)(=O)=O)cc1 (racemic) [Example 136, 2-Amino-N-(1-{8-chloro-5-[4-(methylsulfonyl)phenyl]imidazo[1,5-a]pyridin-6-yl}ethyl)pyrazolo[1,5-a]pyrimidine-3-carboxamide trifluoroacetate salt]
- IC50 [1]: < 100 nM
- IC50 [2]: > 1000 nM
- IC50 [3]: < 500 nM

Next, values leading:

- IC50 [1]: < 100 nM
- IC50 [2]: < 500 nM
- IC50 [3]: < 100 nM
Structure (SMILES): CC(NC(=O)c1c(N)nn2cccnc12)c1cc(Cl)c2cncn2c1-c1cccnc1 (racemic) [Example 127, 2-Amino-N-[1-(8-chloro-5-pyridin-3-ylimidazo[1,5-a]pyridin-6-yl)ethyl]pyrazolo[1,5-a]pyrimidine-3-carboxamide trifluoroacetate salt]

- IC50 [1]: < 100 nM
- IC50 [2]: < 500 nM
- IC50 [3]: < 100 nM
Structure (SMILES): CC(NC(=O)c1c(N)nn2cccnc12)c1cc(Cl)c2cncn2c1N1CCNS(=O)(=O)CC1 (racemic) [Example 149, 2-Amino-N-{1-[8-chloro-5-(1,1-dioxido-1,2,5-thiadiazepan-5-yl)imidazo[1,5-a]pyridin-6-yl]ethyl}pyrazolo[1,5-a]pyrimidine-3-carboxamide]

- IC50 [1]: < 100 nM
- IC50 [2]: > 1000 nM
- IC50 [3]: < 500 nM
Structure (SMILES): COC(=O)C1CCN(c2c(C(C)NC(=O)c3c(N)nn4cccnc34)cc(Cl)c3cn[nH]c23)C1 (stereo not drawn) [Example 102, Methyl 1-[6-(1-{[(2-aminopyrazolo[1,5-a]pyrimidin-3-yl)carbonyl]amino}ethyl)-4-chloro-2H-indazol-7-yl]pyrrolidine-3-carboxylate trifluoroacetate]

- IC50 [1]: < 100 nM
- IC50 [2]: < 500 nM
- IC50 [3]: < 100 nM
Structure (SMILES): C[C@H](NC(=O)c1c(N)nn2cccnc12)c1cc(Cl)c2c(F)cnn2c1N1CCS(=O)(=O)CC1 [Example 58, (S)-2-Amino-N-(1-(4-chloro-7-(1,1-dioxidothiomorpholino)-3-fluoropyrazolo[1,5-a]pyridin-6-yl)ethyl)pyrazolo[1,5-a]pyrimidine-3-carboxamide trifluoroacetate]

- IC50 [1]: < 100 nM
- IC50 [2]: < 1000 nM
- IC50 [3]: < 500 nM
Structure (SMILES): CC(NC(=O)c1c(N)nn2cccnc12)c1cc(Cl)c2cncn2c1N1CCC[C@H]1C (stereo partly drawn) [Example 71A, 2-Amino-N-(1-{8-chloro-5-[(2R)-2-methylpyrrolidin-1-yl]imidazo[1,5-a]pyridin-6-yl}ethyl)pyrazolo[1,5-a]pyrimidine-3-carboxamide bistrifluoroacetate]

- IC50 [1]: < 100 nM
- IC50 [2]: < 500 nM
- IC50 [3]: < 500 nM
Structure (SMILES): Cc1nc(C#N)c2c(Cl)cc(C(C)NC(=O)c3c(N)nn4cccnc34)c(-c3ccccc3)n12 (racemic) [Example 125, 2-Amino-N-[1-(8-chloro-1-cyano-3-methyl-5-phenylimidazo[1,5-a]pyridin-6-yl)ethyl]pyrazolo[1,5-a]pyrimidine-3-carboxamide trifluoroacetate salt]

- IC50 [1]: < 100 nM
- IC50 [2]: < 500 nM
- IC50 [3]: < 100 nM
Structure (SMILES): CC(NC(=O)c1c(N)nn2cccnc12)c1cc(Cl)c2c(Cl)cnn2c1N1CCCS(=O)(=O)CC1 (stereo not drawn) [Example 114, 2-Amino-N-{1-[3,4-dichloro-7-(1,1-dioxido-1,4-thiazepan-4-yl)pyrazolo[1,5-a]pyridin-6-yl]ethyl}pyrazolo[1,5-a]pyrimidine-3-carboxamide trifluoroacetate]

- IC50 [1]: < 100 nM
- IC50 [2]: < 1000 nM
- IC50 [3]: < 2000 nM
Structure (SMILES): Cc1ncn2c(-c3cccnc3)c(C(C)NC(=O)c3c(N)nn4cccnc34)cc(Cl)c12 (racemic) [Example 129, 2-Amino-N-[1-(8-chloro-1-methyl-5-pyridin-3-ylimidazo[1,5-a]pyridin-6-yl)ethyl]pyrazolo[1,5-a]pyrimidine-3-carboxamide trifluoroacetate salt]

- IC50 [1]: < 100 nM
- IC50 [2]: < 500 nM
- IC50 [3]: < 500 nM
Structure (SMILES): CNS(=O)(=O)C1CCN(c2c(C(C)NC(=O)c3c(N)nn4cccnc34)cc(Cl)c3cn[nH]c23)C1 (stereo not drawn) [Example 92, 2-Amino-N-[1-(4-chloro-7-{3-[(methylamino)sulfonyl)pyrrolidin-1-yl}-2H-indazol-6-yl)ethyl]pyrazolo[1,5-a]pyrimidine-3-carboxamide]

- IC50 [1]: < 100 nM
- IC50 [2]: < 500 nM
- IC50 [3]: < 100 nM
Structure (SMILES): Cc1ncc2c(Cl)cc(C(C)NC(=O)c3c(N)nn4cccnc34)c(-c3cccnc3)n12 (racemic) [Example 120, 2-Amino-N-[1-(8-chloro-3-methyl-5-pyridin-3-ylimidazo[1,5-a]pyridin-6-yl)ethyl]pyrazolo[1,5-a]pyrimidine-3-carboxamide trifluoroacetate salt]

- IC50 [1]: < 100 nM
- IC50 [2]: < 500 nM
- IC50 [3]: < 100 nM
Structure (SMILES): CC(NC(=O)c1c(N)nn2cccnc12)c1cc(Cl)c2cncn2c1-c1cn[nH]c1 (racemic) [Example 139, 2-Amino-N-{1-[8-chloro-5-(1H-pyrazol-4-yl)imidazo[1,5-a]pyridin-6-yl]ethyl}pyrazolo[1,5-a]pyrimidine-3-carboxamide trifluoroacetate salt]

- IC50 [1]: < 100 nM
- IC50 [2]: < 500 nM
- IC50 [3]: < 500 nM
Structure (SMILES): COC1CCN(c2c(C(C)NC(=O)c3c(N)nn4cccnc34)cc(Cl)c3cncn23)C1 (stereo not drawn) [Example 144, 2-Amino-N-{1-[8-chloro-5-(3-methoxypyrrolidin-1-yl)imidazo[1,5-a]pyridin-6-yl]ethyl}pyrazolo[1,5-a]pyrimidine-3-carboxamide trifluoroacetate salt]
